The results in this text go back to paper PMC8571713 (Experimental neurology, 2021).

Experiment [1] deals with T1, dSARM1 ARM (Drosophila SARM1 ARM domain) (Drosophila melanogaster, UniProt Q6IDD9).
T1 sequence (Q6IDD9 315-678): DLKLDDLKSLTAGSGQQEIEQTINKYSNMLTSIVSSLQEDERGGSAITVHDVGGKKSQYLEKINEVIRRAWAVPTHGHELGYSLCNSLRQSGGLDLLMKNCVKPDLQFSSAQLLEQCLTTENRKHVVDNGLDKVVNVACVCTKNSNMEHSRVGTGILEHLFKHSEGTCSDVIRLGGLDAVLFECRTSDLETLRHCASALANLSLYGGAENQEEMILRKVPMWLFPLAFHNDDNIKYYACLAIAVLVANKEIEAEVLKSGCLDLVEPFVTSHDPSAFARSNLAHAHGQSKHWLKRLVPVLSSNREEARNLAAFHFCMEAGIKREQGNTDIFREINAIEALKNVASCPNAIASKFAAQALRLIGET
The experiment is described as follows: crystal structure. The format is binding.

The next experiment has as its target T2, hSARM1 (human SARM1) (Homo sapiens, UniProt Q6SZW1).
T2 sequence (Q6SZW1 28-724): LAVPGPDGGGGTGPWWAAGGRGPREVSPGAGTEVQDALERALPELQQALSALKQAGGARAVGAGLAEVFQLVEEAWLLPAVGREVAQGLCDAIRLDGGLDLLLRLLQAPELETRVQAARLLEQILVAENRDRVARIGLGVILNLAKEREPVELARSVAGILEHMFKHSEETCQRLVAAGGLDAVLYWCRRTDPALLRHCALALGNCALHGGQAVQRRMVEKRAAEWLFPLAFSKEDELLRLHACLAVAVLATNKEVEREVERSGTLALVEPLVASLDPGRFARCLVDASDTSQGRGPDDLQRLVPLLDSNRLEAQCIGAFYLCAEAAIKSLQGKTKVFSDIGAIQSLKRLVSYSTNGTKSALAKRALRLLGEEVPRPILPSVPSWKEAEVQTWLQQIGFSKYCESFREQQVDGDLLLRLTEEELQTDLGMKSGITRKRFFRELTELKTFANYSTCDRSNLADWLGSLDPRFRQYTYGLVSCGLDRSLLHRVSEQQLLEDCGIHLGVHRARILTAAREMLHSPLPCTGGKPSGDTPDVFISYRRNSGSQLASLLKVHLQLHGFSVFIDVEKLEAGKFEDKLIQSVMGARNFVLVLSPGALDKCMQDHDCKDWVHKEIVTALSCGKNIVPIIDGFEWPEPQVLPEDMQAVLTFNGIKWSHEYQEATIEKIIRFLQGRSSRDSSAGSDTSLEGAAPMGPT
The experiment in a line: STD NMR with NMN competition. The format is biochemical.

What is called IC50 is the concentration at which inhibition is half-maximal. On to `O=C([O-])c1ccc[n+]([C@@H]2O[C@H](COP(=O)(O)O)[C@@H](O)[C@H]2O)c1` [NaMN, nicotinic acid mononucleotide], for which the “crystal structure (3.31 Å, soaking with 20 mM NaMN); STD NMR” value in experiment [1] is on record as “we determined the crystal structure of the NaMN-bound ARM domain of Drosophila SARM1 (dSARM1ARM) (PDB: 7RTC”. Also, the IC50 at hSARM1 (human SARM1) came out at 93.3 µM.
